# Assays:
# [1] = test system: Enterococcus faecalis ATCC 29212; experiment: Broth microdilution MIC; format: cell-based; conditions: for MIC: Enterococcus faecalis, ATCC29212, read-out: Minimum Inhibitory Concentrations (MIC), Enterococcus faecalis ATCC 29212
# [2] = test system: Escherichia coli ATCC 25922; experiment: Broth microdilution MIC; format: cell-based; conditions: for MIC: Escherichia coli, ATCC25922, read-out: Minimum Inhibitory Concentrations (MIC)
# [3] = test system: Salmonella enterica (food isolate); experiment: Broth microdilution MIC; format: cell-based; conditions: read-out: Minimum Inhibitory Concentrations (MIC)
# [4] = test system: Staphylococcus aureus Clinical/MRSA; experiment: Broth microdilution MIC; format: cell-based; conditions: for MIC: Staphylococcus aureus, MRSA, read-out: Minimum Inhibitory Concentrations (MIC)
# [5] = test system: Staphylococcus aureus ATCC 33591 (methicillin-resistant); experiment: Broth microdilution MIC; format: cell-based; conditions: for MIC: Staphylococcus aureus, ATCC33591, read-out: Minimum Inhibitory Concentrations (MIC)
# [6] = test system: Listeria monocytogenes ATCC 7644; experiment: Biofilm inhibition assay (crystal violet); format: cell-based; conditions: L. monocytogenes
# Experimental: (§1) The ability of the candidate compounds to inhibit biofilm formation was evaluated by determining the minimum biofilm inhibitory concentration (MBIC) against the biofilm-forming strains Staphylococcus aureus ATCC 25923 and Listeria monocytogenes ATCC 7644. Overnight bacterial cultures were diluted in fresh, pre-warmed Mueller–Hinton broth (MHB) and incubated at 37 °C with constant shaking at 220 rpm. Once the cultures reached the exponential growth phase (OD600 = 0.3–0.5), they were standardized to a final concentration of 4 × 10^6 CFU/mL.
# (§2) Aliquots (50 µL) of the standardized bacterial suspension were inoculated into 96-well microtiter plates containing the test compounds at final concentrations of 100, 50, 25, and 12.5 µg/mL. Plates were incubated at 37 °C for 24 to 48 h, depending on the bacterial strain. After incubation, the planktonic cells were carefully aspirated to preserve the integrity of the biofilm layer. Wells were gently rinsed with sterile ultrapure Milli-Q water and air-dried at 60 °C for 1 h to fix the biofilms. Biofilm formation was quantified using a crystal violet (CV) staining method. Wells were stained with 100 µL of 0.1% CV solution and incubated at room temperature for 1 h. Excess dye was removed by rinsing with sterile ultrapure Milli-Q water, followed by air-drying. Bound CV was solubilized with 100 µL of 70% ethanol and incubated for 30 min. The solubilized dye was transferred to a fresh plate, and absorbance was measured at 595 nm using a microplate reader (Bio-Tek EL808, Winooski, VT, USA). Absorbance values were directly proportional to biofilm biomass. Untreated bacterial cultures served as positive controls for biofilm formation, while sterile MHB served as the negative control.
# [7] = test system: RPE1 cells; experiment: Cytotoxicity MTS assay; format: cell-based, human; conditions: RPE1 cells, 48 h, MTS; read-out: IC50 RPE1
# Experimental: (§3) The cytotoxic potential of the selected drug candidates was evaluated using the CellTiter 96® AQueous One Solution Cell Proliferation Assay (Promega, Madison, WI, USA), following the manufacturer’s protocol. Human cell lines RPE1 and HEK293 were cultured at 37 °C in a humidified incubator with 5% CO2. Test compounds were dissolved in the appropriate growth medium and serially diluted across a range of concentrations in 96-well microtiter plates. Each well was seeded with 5000 cells and incubated for 48 h under standard culture conditions. Following this incubation period, 20 µL of MTS reagent was added to each well, and the plates were further incubated for 3 h to allow for color development. Absorbance was measured at 490 nm using a microplate reader to determine cell viability. Cytotoxicity was quantified as the half-maximal inhibitory concentration (IC50), defined as the concentration of compound that reduced cell viability by 50%. […] IC50 values were calculated using GraFit 6.0 software by plotting compound concentration against absorbance and fitting the data to a sigmoidal dose–response curve.
# [8] = test system: HEK293 cells; experiment: Cytotoxicity MTS assay; format: cell-based, human; conditions: HEK293 cells, 48 h, MTS; read-out: IC50 HEK293
# Experimental: as §3
# [9] = test system: Staphylococcus aureus ATCC 25923; experiment: Biofilm inhibition assay (crystal violet); format: cell-based
# Experimental: as §1
# as §2, with “Plates” for “Aliquots (50 µL) of the standardized bacterial suspension were inoculated into 96-well microtiter plates containing the test compounds at final concentrations of 100, 50, 25, and 12.5 µg/mL. Plates”
# [10] = test system: Staphylococcus aureus ATCC 25923; experiment: Broth microdilution MIC; format: cell-based; conditions: for MIC: Staphylococcus aureus, ATCC25923, read-out: Minimum Inhibitory Concentrations (MIC)
# [11] = test system: Pseudomonas aeruginosa ATCC 27853; experiment: Broth microdilution MIC; format: cell-based; conditions: Pseudomonas aeruginosa, ATCC27853, read-out: Minimum Inhibitory Concentrations (MIC)
# [12] = test system: Listeria monocytogenes ATCC 7644; experiment: Broth microdilution MIC; format: cell-based; conditions: Listeria monocytogenes, ATCC7644, read-out: Minimum Inhibitory Concentrations (MIC), Listeria monocytogenes ATCC 7644
# [13] = test system: Bacillus cereus ATCC 14579; experiment: Broth microdilution MIC; format: cell-based; conditions: ATCC14579, read-out: Minimum Inhibitory Concentrations (MIC), Bacillus cereus ATCC 14579
smiles,measurement,setting,value
"CCCCCCCCCCCC[N+](C)(C)Cc1ccccc1.[Br-] [BAB, benzyldodecyldimethylammonium bromide, reference compound]",Minimum Inhibitory Concentrations (MIC),[1]; Enterococcus faecalis ATCC 29212,15 µM
same,Minimum Inhibitory Concentrations (MIC),[2]; Escherichia coli ATCC 25922,63 µM
same,MIC,[3],50 µM
same,Minimum Inhibitory Concentrations (MIC),[4]; Staphylococcus aureus Clinical/MRSA,25 µM
same,Minimum Inhibitory Concentrations (MIC),[5]; Staphylococcus aureus ATCC 33591,25 µM
same,biofilm inhibition,[6]; 12.5 µg/mL,comparable values
same,biofilm inhibition,[6]; 25 µg/mL,20%
same,biofilm inhibition,[6]; 50 µg/mL,remaining consistent
same,biofilm inhibition,[6]; 100 µg/mL,44%
same,IC50,[7],820 nM
same,IC50,[8],3000 nM
same,biofilm inhibition,"[9]; S. aureus ATCC 25923, across all tested concentrations",> 74%
same,Minimum Inhibitory Concentrations (MIC),[10]; Staphylococcus aureus ATCC 25923,10 µM
"O=C1C[N+]2(CCCCCC[N+]34CCC(CC3)C(=O)C4)CCC1CC2 [2(QO)6, 1,1′-(Hexane-1,6-diyl) bis(3-oxoquinuclidinium) dibromide]",MIC,[1],> 75 µM
same,MIC,[2],> 75 µM
same,MIC,[3],> 75 µM
same,MIC,[4],> 75 µM
same,MIC,[5],> 75 µM
same,MIC,[11],> 75 µM
same,MIC,[12],> 75 µM
same,MIC,[10],> 75 µM
same,MIC,[13],> 75 µM
"CCCCCCCCCCCCNC1C[N+]2(CCCC[N+]34CCC(CC3)C(NCCCCCCCCCCCC)C4)CCC1CC2 (racemic) [2(QC12)4, (±)-1,1′-(Butane-1,4-diyl) bis(3-(dodecylamino)quinuclidinium) dibromide]",MIC,[1],> 75 µM
same,MIC,[2],> 75 µM
same,MIC,[3],> 75 µM
same,MIC,[4],> 75 µM
same,MIC,[5],75 µM
same,MIC,[11],> 75 µM
same,MIC,[12],75 µM
same,MIC,[10],> 75 µM
same,MIC,[13],> 75 µM
"CCCCCCCCCCCCNC1C[N+]2(CCCCCC[N+]34CCC(CC3)C(NCCCCCCCCCCCC)C4)CCC1CC2 (racemic) [2(QC12)6, (±)-1,1′-(Hexane-1,6-diyl) bis(3-(dodecylamino)quinuclidinium) dibromide]",MIC,[1],75 µM
same,MIC,[2],38 µM
same,MIC,[3],> 75 µM
same,MIC,[4],> 75 µM
same,MIC,[5],19 µM
same,MIC,[11],> 75 µM
same,MIC,[12],38 µM
same,MIC,[10],75 µM
same,MIC,[13],> 75 µM
"O=C1C[N+]2(CCCC[N+]34CCC(CC3)C(=O)C4)CCC1CC2 [2(QO)4, 1,1′-(Butane-1,4-diyl) bis(3-oxoquinuclidinium) dibromide]",MIC,[1],> 75 µM
same,MIC,[2],> 75 µM
same,MIC,[3],> 75 µM
same,MIC,[4],> 75 µM
same,MIC,[5],> 75 µM
same,MIC,[11],> 75 µM
same,MIC,[12],> 75 µM
same,MIC,[10],> 75 µM
same,MIC,[13],> 75 µM
"O=C1C[N+]2(CCC[N+]34CCC(CC3)C(=O)C4)CCC1CC2 [2(QO)3, 1,1′-(Propane-1,3-diyl) bis(3-oxoquinuclidinium) dibromide]",MIC,[1],> 75 µM
same,MIC,[2],> 75 µM
same,MIC,[3],> 75 µM
same,MIC,[4],> 75 µM
same,MIC,[5],> 75 µM
same,MIC,[11],> 75 µM
same,MIC,[12],> 75 µM
same,MIC,[10],> 75 µM
same,MIC,[13],> 75 µM
"CO/N=C(\C(=O)N[C@@H]1C(=O)N2C(C(=O)O)=C(COC(C)=O)CS[C@H]12)c1csc(N)n1 [CFX, cefotaxime, reference compound]",biofilm inhibition,[6]; 12.5 µg/mL,similarly low values
same,inhibition at 25 µg/mL,"[6]; Listeria monocytogenes, ATCC7644, 25 µg/mL, read-out: biofilm inhibition",6%
same,inhibition at 50 µg/mL,"[6]; Listeria monocytogenes, ATCC7644, 50 µg/mL, read-out: biofilm inhibition",> 20%
same,inhibition at 100 µg/mL,"[6]; Listeria monocytogenes, ATCC7644, 100 µg/mL, read-out: biofilm inhibition",> 20%
same,biofilm inhibition,"[9]; S. aureus ATCC 25923, 50 µg/mL",62%
"CCCCCCCCCCCCCCNC1C[N+]2(CCC[N+]34CCC(CC3)C(NCCCCCCCCCCCCCC)C4)CCC1CC2 (racemic) [2(QC14)3, (±)-1,1′-(Propane-1,3-diyl) bis(3-(tetradecylamino)quinuclidinium) dibromide]",MIC,[1],> 75 µM
same,MIC,[2],> 75 µM
same,MIC,[3],> 75 µM
same,MIC,[4],> 75 µM
same,MIC,[5],75 µM
same,MIC,[11],> 75 µM
same,MIC,[12],38 µM
same,MIC,[10],75 µM
same,MIC,[13],> 75 µM
"CCCCCCCCCCCCNC1C[N+]2(CCC[N+]34CCC(CC3)C(NCCCCCCCCCCCC)C4)CCC1CC2 (racemic) [2(QC12)3, (±)-1,1′-(Propane-1,3-diyl) bis(3-(dodecylamino)quinuclidinium) dibromide]",MIC,[1],> 75 µM
same,MIC,[2],> 75 µM
same,MIC,[3],75 µM
same,MIC,[4],> 75 µM
same,MIC,[5],75 µM
same,MIC,[11],> 75 µM
same,MIC,[12],38 µM
same,MIC,[10],75 µM
same,MIC,[13],> 75 µM
"CCCCCCCCCCCCCCNC1C[N+]2(CCCC[N+]34CCC(CC3)C(NCCCCCCCCCCCCCC)C4)CCC1CC2 (racemic) [2(QC14)4, (±)-1,1′-(Butane-1,4-diyl) bis(3-(tetradecylamino)quinuclidinium) dibromide]",MIC,[1],> 75 µM
same,MIC,[2],> 75 µM
same,MIC,[3],> 75 µM
same,MIC,[4],> 75 µM
same,MIC,[5],75 µM
same,MIC,[11],> 75 µM
same,MIC,[12],> 75 µM
same,MIC,[10],> 75 µM
same,MIC,[13],> 75 µM

# Reference: publication PMC12473123, “Structure–Function Insights into Quinuclidine-3-One BisQACs: Synthesis, Modulation of Bacterial Resistance, Structure–Activity Relationship, and Biological Profiling” (Pharmaceuticals, 2025)
